Data: PubChem BioAssay (NCI)
Where “and” joins values, the source holds several entries; their conditions need not be identical. Identical values can stand only once.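 A five-concentration, 48-hour dose response in 96-well plates underlies each endpoint, interpolated linearly between surrounding concentrations. Here, GI50 denotes the concentration required for 50% inhibition of growth. TGI: concentration producing complete growth inhibition.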

Tests used:
Assay in all cases: NCI tumour cell line growth inhibition, 48 h
[1] = system: MDA-N
[2] = system: DLD-1 colon
[3] = system: HOP-18 NSCLC
[4] = system: DMS 114 small cell lung
[5] = system: KM20L2 colon
[6] = system: RXF-631 renal
[7] = system: LXFL 529 NSCLC
[8] = system: M19-MEL melanoma
[9] = system: SNB-78 CNS

SMILES | TGI [1] | TGI [2] [µM] | TGI [3] [µM] | TGI [4] | TGI [5] [µM] | TGI [6] [µM] | TGI [7] [µM] | TGI [8] [µM] | TGI [9] | other results
Nc1[nH]c(=O)ncc1F | > 100 µM | – | – | – | – | – | – | – | – | –
COc1ccc2cccc(C(=O)c3ccc(C)c4c3CCC4)c2c1 | – | > 100 | > 100 | > 100 µM | > 100 | 43.9 | > 100 | > 100 | – | –
CCOC(=O)C1N(S(=O)(=O)c2ccc(C)cc2)CCC12c1ccccc1N(C(C)=O)C2C(/C=C/C(=O)OC)=C/C(=O)OC (configuration not stated) | – | > 100 | – | > 100 µM | > 100 | – | > 100 | > 100 | > 100 µM | –
COc1ccccc1/C=C\c1cnnc2ccccc12 | 9.66 µM | – | – | – | – | – | – | – | – | –
OCC(O)C(O)c1nn(-c2ccccc2)c2nc3cc(Cl)c(Cl)cc3nc12 (configuration not stated) | – | > 100 | > 100 | 71.4 µM | 75.8 | 91.5 | 70.9 | > 100 | > 100 µM | –
CCC1C(C)c2c([nH]c3ccccc23)C2C(=O)N(c3ccccc3)C(=O)C21 (configuration not stated) | – | 34.9 | – | 29.7 µM | – | 26.3 | 96.2 | 29.6 | 67.6 µM | –
O=P(Oc1ccc(Cl)cc1)(Oc1ccc(Cl)cc1)N1CC1 | > 10 µM | – | – | – | – | – | – | – | – | –
Cc1cc(C)cc(-n2c3nc(=O)n(C)c(=O)c-3nc3ccccc32)c1 | – | – | > 100 | 29.1 µM | 52.9 | 80.3 | > 100 | 18.5 | > 100 µM | –
O=C(O)c1c(O)c2cc(Br)ccc2oc1=O | > 100 µM | – | – | – | – | – | – | – | – | –
O=C(CC(=O)N1N=C(c2ccccc2)C(N=Nc2ccc(C(=O)O)cc2)C1=O)Nc1ccc(F)cc1 (configuration not stated) | – | > 100 | – | > 100 µM | > 100 | > 100 | > 100 | > 100 | > 100 µM | –
S=c1nc(-c2nc(=S)[nH]c3c2CCCCCCCCCC3)c2c([nH]1)CCCCCCCCCC2 | > 100 µM | – | – | – | – | – | – | – | – | –
COC(=O)/C=C/C(=O)C1C(C(=O)OC)C2(C(=O)OC)CCC1(C(=O)OC)N2 (configuration not stated) | – | > 100 | > 100 | > 100 µM | – | – | – | > 100 | > 100 µM | –
Cn1c2c([N+](=O)[O-])[se]nc2c(=O)n1-c1ccc([N+](=O)[O-])cc1 | – | 2.69 | 5.17 | 0.575 µM | 18.3 | 4.04 | 2.5 | – | 3.76 µM | –
CC(=O)NS(=O)(=O)c1ccc(NC(=O)COC(=O)c2cccc3c(=O)c4ccccc4[nH]c23)cc1 | – | – | > 100 | > 100 µM | – | – | – | > 100 | – | –
C=CN1C(=O)OC(c2ccccc2)C1c1ccccc1 (configuration not stated) | – | > 100 | > 100 | > 100 µM | > 100 | > 100 | > 100 | > 100 | > 100 µM | GI50 [2]: > 100 µM; GI50 [3]: > 100 µM; GI50 [4]: > 31.6 µM and 73.1 µM; GI50 [9]: > 100 µM; GI50 [5]: > 100 µM; GI50 [6]: > 100 µM; GI50 [7]: > 100 µM; GI50 [8]: > 100 µM
O=c1[nH]cc(CS(=O)(=O)Cc2c[nH]c(=O)[nH]c2=O)c(=O)[nH]1 | > 100 µM | – | – | – | – | – | – | – | – | –
O=C(c1ccccc1)C1C(C(=O)c2ccccc2)N1Cc1ccccc1 (configuration not stated) | 37.4 µM | – | – | – | – | – | – | – | – | –
O=C1c2ccccc2C(=O)c2c(NCCCNCCO)ccc(NCCCNCCO)c21 | 20 µM | – | 67.2 | 25.2 µM | 19.9 | > 100 | 16.1 | 18.6 | 30.8 µM | –
CCCCCCCCCCCC(=O)OCC1OC(n2cc(F)c(=O)[nH]c2=O)C(NC(=O)OCc2ccccc2)C(O)C1O (configuration not stated) | – | – | – | – | 42.3 | – | 34.3 | 37.2 | 87.7 µM | –
C/C(=C\c1ccc(Cl)cc1)C(C)(C)C(=O)O | > 100 µM | – | – | – | – | – | – | – | – | –
CN(C)c1ccc(/C=C2\C[C@H]3[C@@H]4CC=C5C[C@@H](N6CCCC6)CC[C@]5(C)[C@H]4CC[C@]3(C)[C@H]2O)cc1 | 2.34 µM and 8.6 µM | – | – | – | – | – | – | – | – | GI50 [1]: 2.87 µM
COC(=O)C1=C(OC)c2cc3c(cc2C(c2cc(OC)c(OC)c(OC)c2)C1C(=O)OC)OCO3 (configuration not stated) | – | > 100 | > 100 | > 100 µM | > 100 | – | > 100 | > 100 | > 100 µM | –
S=c1nc[nH]c2c1ncn2Cc1ccco1 | > 100 µM | – | – | – | – | – | – | – | – | –
O=C(c1cc(O)ccc1O)c1ccccc1C(Cl)(Cl)Cl | – | – | > 100 | > 100 µM | > 100 | – | > 100 | > 100 | > 100 µM | –
C/C1=C\[C@H](C)C[C@H](C)OC(=O)C[C@H](c2ccc(O)cc2)NC(=O)[C@@H](Cc2c(Br)[nH]c3ccccc23)N(C)C(=O)[C@H](C)NC(=O)[C@@H](C)C1 | 2.83 µM | 2.39 | – | 0.837 µM and 1.56 µM | 10.7 | – | 3.41 | 2.02 | 0.795 µM and 0.163 µM | GI50 [2]: 0.148 µM; GI50 [4]: 0.0424 µM; GI50 [9]: 0.0339 µM; GI50 [5]: 0.0277 µM; GI50 [6]: 0.047 µM; GI50 [7]: 0.0299 µM; GI50 [8]: 0.0414 µM
